In patent US4231928A, “Antibacterial agents” (priority 1979, dated 1980):
Read-outs that look alike come from different tables or passages of the source.

What was measured:
Type in all cases: cell-based
S. aureus = assay: Serial twofold agar dilution (Mueller-Hinton agar), S. aureus; conditions: Staphylococcus aureus
Method in brief: (§1)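 Compound was diluted twofold serially into Mueller-Hinton agar plates. Organisms were then applied with Steers' apparatus, and the MIC was read for each strain in a 31-organism primary panel and a 61-strain P. aeruginosa set.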

E. coli = assay: Serial twofold agar dilution (Mueller-Hinton agar), E. coli; conditions: Escherichia coli
Method in brief: as §1

K. pneumoniae = assay: Serial twofold agar dilution (Mueller-Hinton agar), K. pneumoniae
Method in brief: as §1

Klebsiella sp. = assay: Serial twofold agar dilution (Mueller-Hinton agar), Klebsiella sp.; conditions: Klebsiella sp. A20452, Mueller-Hinton agar
Method in brief: as §1

E. cloacae = assay: Serial twofold agar dilution (Mueller-Hinton agar), E. cloacae; conditions: Enterobacter cloacae
Method in brief: as §1

P. mirabilis = assay: Serial twofold agar dilution (Mueller-Hinton agar), P. mirabilis; conditions: Proteus mirabilis, P. mirabilis A9900, Mueller-Hinton agar, read-out: MIC
Method in brief: as §1

P. vulgaris = assay: Serial twofold agar dilution (Mueller-Hinton agar), P. vulgaris
Method in brief: as §1

P. morganii = assay: Serial twofold agar dilution (Mueller-Hinton agar), P. morganii
Method in brief: as §1

S. enteritidis = assay: Serial twofold agar dilution (Mueller-Hinton agar), S. enteritidis
Method in brief: as §1

S. marcescens = assay: Serial twofold agar dilution (Mueller-Hinton agar), S. marcescens; conditions: Serratia marcescens
Method in brief: as §1

Pseudomonas aeruginosa = assay: Serial twofold agar dilution (Mueller-Hinton agar), P. aeruginosa; conditions: for MIC: Pseudomonas aeruginosa
Method in brief: as §1

`CC1(C)S[C@@H]2[C@H](NC(=O)[C@H](NC(=O)c3cnc4ccc(O)nn4c3=O)c3ccccc3)C(=O)N2[C@H]1C(=O)O` [BB-P598, sodium 6-[D-(-)-α-phenyl-α-(7-hydroxy-4-oxo-4H-pyrimido[1,2-b]pyridazin-3-ylcarboxamido)acetamido]penicillanate] showed an MIC (S. aureus; S. aureus A15097, Table 8, read-out: MIC) of over 100 µg/mL, an MIC (S. aureus; S. aureus A20239, Table 8, read-out: MIC) of 25 µg/mL and an MIC (S. aureus; S. aureus A20240, Table 8, read-out: MIC) of 12.5 µg/mL. The MIC (S. aureus; S. aureus A20701, Table 8, read-out: MIC) was over 100 µg/mL, the MIC (S. aureus; S. aureus BX-1633 A9606, Table 1, read-out: MIC) was 6.3 µg/mL and the MIC (S. aureus; S. aureus BX-1633 A9606, Table 8, read-out: MIC) was 50 µg/mL. For the same compound, the MIC (S. aureus; S. aureus BX-1633 A15097, Table 1, read-out: MIC) was 100 µg/mL, the MIC (S. aureus; S. aureus BX-1633 A20240, Table 1, read-out: MIC) was 6.3 µg/mL and the MIC (S. aureus; S. aureus BX-1633 A20701, Table 1, read-out: MIC) was over 100 µg/mL. For the same compound, the MIC (S. aureus; S. aureus Smith A9537, Table 1, read-out: MIC) was 1.6 µg/mL, the MIC (S. aureus; S. aureus Smith A9537, Table 8, read-out: MIC) was 1.6 µg/mL and the MIC (S. aureus; S. aureus Smith A20239, Table 1) was 25 µg/mL. The MIC (E. coli; E. coli A9635, Table 8, read-out: MIC) was 12.5 µg/mL, the MIC (E. coli; E. coli A9844, Table 8, read-out: MIC) was 6.3 µg/mL and the MIC (E. coli; E. coli A20366, Table 8, read-out: MIC) was over 100 µg/mL. The MIC (E. coli; E. coli A20520, Table 8, read-out: MIC) was 3.1 µg/mL, the MIC (E. coli; E. coli A20664, Table 8, read-out: MIC) was 0.8 µg/mL and the MIC (E. coli; E. coli A20732, Table 8, read-out: MIC) was 50 µg/mL. It also gave an MIC (E. coli; E. coli A20898, Table 8, read-out: MIC) of over 100 µg/mL, an MIC (E. coli; E. coli Juhl A9435, Table 1) of 12.5 µg/mL and an MIC (E. coli; E. coli Juhl A9844, Table 1, read-out: MIC) of 3.1 µg/mL. For the same compound, the MIC (E. coli; E. coli Juhl A15119, Table 1, read-out: MIC) was 12.5 µg/mL, the MIC (E. coli; E. coli Juhl A15119, Table 8, read-out: MIC) was 12.5 µg/mL and the MIC (E. coli; E. coli Juhl A20366, Table 1, read-out: MIC) was over 100 µg/mL. It also gave an MIC (E. coli; E. coli Juhl A20520, Table 1, read-out: MIC) of 1.6 µg/mL, an MIC (E. coli; E. coli Juhl A20664, Table 1, read-out: MIC) of 0.8 µg/mL and an MIC (E. coli; E. coli Juhl A20732, Table 1, read-out: MIC) of 100 µg/mL. The MIC (E. coli; E. coli Juhl A20898, Table 1, read-out: MIC) was over 100 µg/mL, the MIC (E. coli; E. coli NIHJ, Table 1, read-out: MIC) was 0.8 µg/mL and the MIC (E. coli; E. coli NIHJ, Table 8, read-out: MIC) was 3.1 µg/mL. For the same compound, the MIC (K. pneumoniae; K. pneumoniae A9977, Table 1) was 12.5 µg/mL, the MIC (K. pneumoniae; Klebsiella pneumoniae, K. pneumoniae A9977, Table 8, read-out: MIC) was 12.5 µg/mL and the MIC (Klebsiella sp.; Table 1, read-out: MIC) was 25 µg/mL. The MIC (Klebsiella sp.; Table 8, read-out: MIC) was 12.5 µg/mL, the MIC (E. cloacae; E. cloacae A9656, Table 1) was 25 µg/mL and the MIC (E. cloacae; E. cloacae A9656, Table 8) was 25 µg/mL. It also gave an MIC (E. cloacae; E. cloacae A9657, Table 1) of 50 µg/mL, an MIC (E. cloacae; E. cloacae A9657, Table 8) of 100 µg/mL and an MIC (E. cloacae; E. cloacae A9659, Table 1) of 25 µg/mL. It also gave an MIC (E. cloacae; E. cloacae A9659, Table 8) of 25 µg/mL, an MIC (P. mirabilis; Table 1) of 0.2 µg/mL and an MIC (P. mirabilis; Table 8) of 6.3 µg/mL. For the same compound, the MIC (P. vulgaris; P. vulgaris A9539, Table 1) was 25 µg/mL, the MIC (P. vulgaris; Proteus vulgaris, P. vulgaris A9539, Table 8, read-out: MIC) was 25 µg/mL and the MIC (P. morganii; Morganella morganii, P. morganii A9553, Table 8, read-out: MIC) was over 100 µg/mL. The MIC (P. morganii; P. morganii A9553, Table 1) was over 100 µg/mL, the MIC (S. enteritidis; S. enteritidis A9531, Table 1) was 6.3 µg/mL and the MIC (S. enteritidis; Salmonella enterica, S. enteritidis A9531, Table 8, read-out: MIC) was 6.3 µg/mL. The MIC (S. marcescens; S. marcescens A20019, Table 1) was 100 µg/mL, the MIC (S. marcescens; S. marcescens A20019, Table 8) was 50 µg/mL and the “Mean % relative activity (sulbenicillin = 100%)” value (Pseudomonas aeruginosa; 61 strains of P. aeruginosa, Table 2) was 756%. The “Mean % relative activity compared with carbenicillin” value (Pseudomonas aeruginosa; 61 strains of P. aeruginosa, Table 9) was 856%, the MIC (Pseudomonas aeruginosa; 61 strains of P. aeruginosa, Table 2, read-out: Geometric mean of MIC) was 4.2 µg/mL and the MIC (Pseudomonas aeruginosa; 61 strains of P. aeruginosa, Table 9, read-out: Geometric mean of MIC) was 3.5 µg/mL. It also gave an MIC (Pseudomonas aeruginosa; ATCC19660, Pa-14 ATCC 19660 A20325, Mueller-Hinton agar, Table 9, read-out: MIC) of 6.3 µg/mL, an MIC (Pseudomonas aeruginosa; GN315, Pa-27 GN315 A21294, Mueller-Hinton agar, Table 2, read-out: MIC) of 3.1 µg/mL and an MIC (Pseudomonas aeruginosa; GN315, Pa-27 GN315 A21294, Mueller-Hinton agar, Table 9, read-out: MIC) of 1.6 µg/mL. For the same compound, the MIC (Pseudomonas aeruginosa; GN4925, Pa-45 GN4925, Mueller-Hinton agar, Table 2, read-out: MIC) was 6.3 µg/mL, the MIC (Pseudomonas aeruginosa; GN4925, Pa-45 GN 4925, Mueller-Hinton agar, Table 9, read-out: MIC) was 6.3 µg/mL and the MIC (Pseudomonas aeruginosa; P. aeruginosa A9843, Mueller-Hinton agar, Table 1, read-out: MIC) was 3.1 µg/mL. For the same compound, the MIC (Pseudomonas aeruginosa; P. aeruginosa A9843, Mueller-Hinton agar, Table 8, read-out: MIC) was 3.1 µg/mL, the MIC (Pseudomonas aeruginosa; P. aeruginosa A9930, Mueller-Hinton agar, Table 1, read-out: MIC) was 1.6 µg/mL and the MIC (Pseudomonas aeruginosa; P. aeruginosa A9930, Mueller-Hinton agar, Table 8, read-out: MIC) was 1.6 µg/mL. It also gave an MIC (Pseudomonas aeruginosa; P. aeruginosa A15150, Mueller-Hinton agar, Table 1, read-out: MIC) of 0.8 µg/mL, an MIC (Pseudomonas aeruginosa; P. aeruginosa A15150, Mueller-Hinton agar, Table 8, read-out: MIC) of 1.6 µg/mL and an MIC (Pseudomonas aeruginosa; P. aeruginosa A20229, Mueller-Hinton agar, Table 1, read-out: MIC) of 1.6 µg/mL. For the same compound, the MIC (Pseudomonas aeruginosa; P. aeruginosa A20717, Mueller-Hinton agar, Table 1, read-out: MIC) was 6.3 µg/mL, the MIC (Pseudomonas aeruginosa; P. aeruginosa A20717, Mueller-Hinton agar, Table 8, read-out: MIC) was 6.3 µg/mL and the MIC (Pseudomonas aeruginosa; Pa-1 D15, Mueller-Hinton agar, Table 2, read-out: MIC) was 6.3 µg/mL. For the same compound, the MIC (Pseudomonas aeruginosa; Pa-1 D15, Mueller-Hinton agar, Table 9, read-out: MIC) was 6.3 µg/mL, the MIC (Pseudomonas aeruginosa; Pa-2 V.A A9923, Mueller-Hinton agar, Table 9, read-out: MIC) was 3.1 µg/mL and the MIC (Pseudomonas aeruginosa; Pa-2 VA A9923, Mueller-Hinton agar, Table 2, read-out: MIC) was 3.1 µg/mL. It also gave an MIC (Pseudomonas aeruginosa; Pa-3 1449 V.A A9930, Mueller-Hinton agar, Table 9, read-out: MIC) of 3.1 µg/mL, an MIC (Pseudomonas aeruginosa; Pa-3 1449VA A9930, Mueller-Hinton agar, Table 2, read-out: MIC) of 1.6 µg/mL and an MIC (Pseudomonas aeruginosa; Pa-4 H9, D113 A21295, Mueller-Hinton agar, Table 9, read-out: MIC) of 3.1 µg/mL. For the same compound, the MIC (Pseudomonas aeruginosa; Pa-4 H9 D113 A21295, Mueller-Hinton agar, Table 2, read-out: MIC) was 6.3 µg/mL, the MIC (Pseudomonas aeruginosa; Pa-5 M4865, K.C A15150, Mueller-Hinton agar, Table 9, read-out: MIC) was 1.6 µg/mL and the MIC (Pseudomonas aeruginosa; Pa-5 M4865KC A15150, Mueller-Hinton agar, Table 2, read-out: MIC) was 3.1 µg/mL. For the same compound, the MIC (Pseudomonas aeruginosa; Pa-6 No. 5 A15194, Mueller-Hinton agar, Table 2, read-out: MIC) was 25 µg/mL, the MIC (Pseudomonas aeruginosa; Pa-6 No. 5 Levitan A15194, Mueller-Hinton agar, Table 9, read-out: MIC) was 12.5 µg/mL and the MIC (Pseudomonas aeruginosa; Pa-7 A9843, Mueller-Hinton agar, Table 2, read-out: MIC) was 6.3 µg/mL. The MIC (Pseudomonas aeruginosa; Pa-10 A20479, Mueller-Hinton agar, Table 2, read-out: MIC) was over 100 µg/mL, the MIC (Pseudomonas aeruginosa; Pa-10 A21479, Mueller-Hinton agar, Table 9, read-out: MIC) was 100 µg/mL and the MIC (Pseudomonas aeruginosa; Pa-11 A20616, Mueller-Hinton agar, Table 2, read-out: MIC) was 3.1 µg/mL. The MIC (Pseudomonas aeruginosa; Pa-11 A20616, Mueller-Hinton agar, Table 9, read-out: MIC) was 6.3 µg/mL, the MIC (Pseudomonas aeruginosa; Pa-12 A20653, Mueller-Hinton agar, Table 2, read-out: MIC) was 6.3 µg/mL and the MIC (Pseudomonas aeruginosa; Pa-12 A20653, Mueller-Hinton agar, Table 9, read-out: MIC) was 6.3 µg/mL. For the same compound, the MIC (Pseudomonas aeruginosa; Pa-14 A20325, Mueller-Hinton agar, Table 2, read-out: MIC) was 3.1 µg/mL, the MIC (Pseudomonas aeruginosa; Pa-15 A20717, Mueller-Hinton agar, Table 2, read-out: MIC) was 6.3 µg/mL and the MIC (Pseudomonas aeruginosa; Pa-15 A20717, Mueller-Hinton agar, Table 9, read-out: MIC) was 12.5 µg/mL. It also gave an MIC (Pseudomonas aeruginosa; Pa-16 #130 A20718, Mueller-Hinton agar, Table 2, read-out: MIC) of 0.8 µg/mL and an MIC (Pseudomonas aeruginosa; Pa-16 #130 A20718, Mueller-Hinton agar, Table 9, read-out: MIC) of 0.4 µg/mL.
